Assay results: patent US9856290B2, “Glycopeptide compositions and uses thereof” (SUSSEX RESEARCH LABORATORIES INC., priority 2013, dated 2018)
Marks after values point to notes of the source that are not given here. The star is where a group is joined. Ac7‑β‑Mal = peracetylated β-maltose, CC(=O)OC[C@H]1O[C@@H](*)[C@H](OC(C)=O)[C@@H](OC(C)=O)[C@@H]1O[C@H]1O[C@H](COC(C)=O)[C@@H](OC(C)=O)[C@H](OC(C)=O)[C@H]1OC(C)=O; Ac4‑β‑Gal = tetraacetyl-β-galactoside (peracetylated β-galactose), CC(=O)OC[C@H]1O[C@@H](*)[C@H](OC(C)=O)[C@@H](OC(C)=O)[C@H]1OC(C)=O; Ac4‑β‑Glc = per-acetylated β-glucose (tetraacetyl), CC(=O)OC[C@H]1O[C@@H](*)[C@H](OC(C)=O)[C@@H](OC(C)=O)[C@@H]1OC(C)=O; αGalNAc = CC(=O)N[C@@H]1[C@@H](O)[C@@H](O)[C@@H](CO)O[C@@H]1*; βGlcNAc = CC(=O)N[C@@H]1[C@@H](O)[C@H](O)[C@@H](CO)O[C@H]1*; βGlc = OC[C@H]1O[C@@H](*)[C@H](O)[C@@H](O)[C@@H]1O; βGal = OC[C@H]1O[C@@H](*)[C@H](O)[C@@H](O)[C@H]1O; Palmitoyl = CCCCCCCCCCCCCCCC(=O)*

Key:
Type in all cases: cell-based
[1] = system: Human Dermal Fibroblasts (KMST-6); assay: ECM ELISA assay: elastin secretion by human dermal fibroblasts; conditions: 5 μM; for biological activity in elastin secretion compared to control / increased elastin secretion compared to control / increased secretion of elastin compared to the reference peptide: 72 hours; for increased elastin secretion compared to control: versus DMSO control; for increased secretion of elastin compared to the reference peptide: versus Pal-KTTKS reference; for Elastin Secretion at 48 hours: KMST-6, 48 hours; for Elastin Secretion at 48 hours / Elastin Secretion at 72 hours: % compared to control set at 100%, normalized to total protein; for Elastin Secretion at 72 hours / ELASTIN (ECM Protein Summary Table): KMST-6, 72 hours; for ELASTIN (ECM Protein Summary Table): control 100%
Procedure, shortened: (§1)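 KMST-6 human dermal fibroblasts treated with 5 μM compound in serum-free medium with sodium ascorbate and β-aminopropionate fumarate for 48 and 72 h. Secreted fibronectin and elastin quantified by ELISA (450 nm, 4-parameter standard curve), normalized to total cellular protein and expressed as % of DMSO control.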

[2] = system: Human Dermal Fibroblasts (KMST-6); assay: ECM ELISA assay: fibronectin secretion by human dermal fibroblasts; conditions: 5 μM; for increased fibronectin secretion compared to control: versus DMSO control; for Fibronectin secretion at 48 hours: KMST-6, 48 hours; for Fibronectin secretion at 48 hours / Fibronectin Secretion at 72 hours: % compared to control set at 100%, normalized to total protein; for Fibronectin Secretion at 72 hours / FIBRONECTIN (ECM Protein Summary Table): KMST-6, 72 hours; for FIBRONECTIN (ECM Protein Summary Table): control 100%
Procedure, shortened: as §1

[3] = system: Human Dermal Fibroblasts (KMST-6); assay: Total Collagen Assay (Sirius Red Collagen Detection Kit); conditions: 5 μM
Method: KMST-6 cells (Japan Health Sciences Foundation, JCRB0433) were seeded at 7,000 cells/mL in 60 mm tissue culture treated plates (Falcon, 353002) in complete media. The complete media consisted of the following: MEM/EBSS (Hyclone, SH30024.01), 10% Heat-Inactivated FBS (Gibco, 10082-147), 1% L-Glutamine (Hyclone, SH30031.01), 1% Nucleosides (800 mg/L Adenosine, 850 mg/L Guanidine, 730 mg/L Cytidine, 730 mg/L Uridine and 240 mg/L Thymidine), 1% Penicillin/Streptomycin (HyClone, SV30010), 1% Sodium Pyruvate (HyClone, SH30239.01), 1% Non-Essential Amino Acids (Hyclone, SH30238.01) and 0.04% Gentamicin (Gibco, 15710-064). Cells were grown for 2 days prior to treatments. The cells were washed with 1×PBS (Fisher, SH30256.01) and treated with 5 μM glycopeptides (GP003-9, GP004-3, GP004-4), reference (Pal-KTTKS, CPC Scientific, 822197), and control (DMSO, Fisher, BP231-100) in serum-free media supplemented with 50 µg/mL Sodium Ascorbate (Sigma, A4034) and 80 μg/mL β-Aminopropionate Fumarate (Sigma, A3134). The treated cells were incubated at 37° C. and 5% CO2 for 48 and 72 hours. At each timepoint, media from each treatment was collected and centrifuged at 1500 RPM for 15 minutes at 4° C. The supernatant was collected and stored at −80° C. for extracellular matrix protein quantification. The following kit was used for quantification of total collagen: Sirius Red Collagen Detection Kit (Chondrex Inc., 9062). The cells were harvested and lysed with Lysis Buffer (20 mM Tris-HCl (Sigma, T1503), 137 mM NaCl (Sigma, S9888), 2 mM EDTA (Fisher, BP118), 1% IGEPAL (Sigma, 18896), 10% Glycerol (Sigma, G5516), 100 μM PMSF (Fisher, 36978) and 10 μg/mL Leupeptin (Sigma, L2884)). They were placed on a container of ice on an orbital shaker (VWR, 89032-088) for 30 minutes. The cell lysate was centrifuged at 10,000 g for 5 minutes at 4° C. The supernatant was collected and used for protein quantification (BioRad, 500-0112). […]

[4] = 72 hours, versus Pal-KTTKS reference

Row | Substance | biological activity in elastin secretion compared to control [1] | increased elastin secretion compared to control [1] [%] | increased secretion of elastin compared to the reference peptide [1] [%] | Elastin Secretion at 48 hours [1] | Elastin Secretion at 72 hours [1] | ELASTIN (ECM Protein Summary Table) [1] | biological activity in fibronectin secretion compared to control ([2]; 72 hours) | increased fibronectin secretion compared to control ([2]; 72 hours) [%] | increased fibronectin secretion compared to reference [2, 4] [%] | Fibronectin secretion at 48 hours [2] | Fibronectin Secretion at 72 hours [2] | FIBRONECTIN (ECM Protein Summary Table) [2] | increased total collagen secretion compared to control ([3]; 72 hours, versus DMSO control) [%] | increased total collagen secretion compared to the reference peptide [3, 4] [%] | TOTAL COLLAGEN (ECM Protein Summary Table) ([3]; KMST-6, 72 hours, control 100%)
1 | Pal-KTT(Ac7-β-Mal)KS-OH (Palmitoyl-KTT(Ac7‑β‑Mal)KS-OH; SMILES CCCCCCCCCCCCCCCC(=O)N[C@@H](CCCCN)C(=O)N[C@H](C(=O)N[C@H](C(=O)N[C@@H](CCCCN)C(=O)N[C@@H](CO)C(=O)O)[C@@H](C)O[C@@H]1O[C@H](COC(C)=O)[C@@H](O[C@H]2O[C@H](COC(C)=O)[C@@H](OC(C)=O)[C@H](OC(C)=O)[C@H]2OC(C)=O)[C@H](OC(C)=O)[C@H]1OC(C)=O)[C@@H](C)O; listed as Homo sapiens) [GP004-3] | greater biological activity | 285 | 252 | 226.1% | 384.7* % | 385*^# % | greater biological activity | 68 | 50 | 185.0* % | 168.3* % | 168*^# % | 31 | 21 | 131*^# %
2 | Pal-KTTKS(Ac4-β-Gal)-OH (Palmitoyl-KTTKS(Ac4‑β‑Gal)-OH; SMILES CCCCCCCCCCCCCCCC(=O)N[C@@H](CCCCN)C(=O)N[C@H](C(=O)N[C@H](C(=O)N[C@@H](CCCCN)C(=O)N[C@@H](CO[C@@H]1O[C@H](COC(C)=O)[C@H](OC(C)=O)[C@H](OC(C)=O)[C@H]1OC(C)=O)C(=O)O)[C@@H](C)O)[C@@H](C)O; listed as Homo sapiens) [GP002-7] | greater biological activity | 107 |  | 198.3% | 207.1* % | 207* % | greater biological activity |  |  | 113.7% | 116.1% | 116% |  |  | 
3 | Pal-KTTKS(Ac4-β-Glc)-OH (Palmitoyl-KTTKS(Ac4‑β‑Glc)-OH; SMILES CCCCCCCCCCCCCCCC(=O)N[C@@H](CCCCN)C(=O)N[C@H](C(=O)N[C@H](C(=O)N[C@@H](CCCCN)C(=O)N[C@@H](CO[C@@H]1O[C@H](COC(C)=O)[C@@H](OC(C)=O)[C@H](OC(C)=O)[C@H]1OC(C)=O)C(=O)O)[C@@H](C)O)[C@@H](C)O; listed as Homo sapiens) [GP002-3] | greater biological activity | 222 | 189 | 460.4* % | 321.6* % | 322*^# % | greater biological activity | 35 |  | 135.5% | 134.5* % | 135* % |  |  | 
4 | Pal-KTTKS(α-GalNAc)-OH (Palmitoyl-KTTKS(αGalNAc)-OH; SMILES CCCCCCCCCCCCCCCC(=O)N[C@@H](CCCCN)C(=O)N[C@H](C(=O)N[C@H](C(=O)N[C@@H](CCCCN)C(=O)N[C@@H](CO[C@H]1O[C@H](CO)[C@H](O)[C@H](O)[C@H]1NC(C)=O)C(=O)O)[C@@H](C)O)[C@@H](C)O; listed as Homo sapiens) [GP002-2] |  |  |  | 143.8% | 127.0% |  |  |  |  | 95.7% | 90.60% |  |  |  | 
5 | Pal-KTTKS(β-Gal)-OH (Palmitoyl-KTTKS(βGal)-OH; SMILES CCCCCCCCCCCCCCCC(=O)N[C@@H](CCCCN)C(=O)N[C@H](C(=O)N[C@H](C(=O)N[C@@H](CCCCN)C(=O)N[C@@H](CO[C@@H]1O[C@H](CO)[C@H](O)[C@H](O)[C@H]1O)C(=O)O)[C@@H](C)O)[C@@H](C)O; listed as Homo sapiens) [GP002-8] |  |  |  | 103.8% | 177.8% |  |  |  |  | 110.0% | 121.0% |  |  |  | 
6 | Pal-KTTKS(β-Glc)-OH (Palmitoyl-KTTKS(βGlc)-OH; SMILES CCCCCCCCCCCCCCCC(=O)N[C@@H](CCCCN)C(=O)N[C@H](C(=O)N[C@H](C(=O)N[C@@H](CCCCN)C(=O)N[C@@H](CO[C@@H]1O[C@H](CO)[C@@H](O)[C@H](O)[C@H]1O)C(=O)O)[C@@H](C)O)[C@@H](C)O; listed as Homo sapiens) [GP002-4] |  |  |  | 145.0% | 142.0% |  |  |  |  | 121.5% | 116.0% |  |  |  | 
7 | Pal-KTTKS(β-GlcNAc)-OH (Palmitoyl-KTTKS(βGlcNAc)-OH; SMILES CCCCCCCCCCCCCCCC(=O)N[C@@H](CCCCN)C(=O)N[C@H](C(=O)N[C@H](C(=O)N[C@@H](CCCCN)C(=O)N[C@@H](CO[C@@H]1O[C@H](CO)[C@@H](O)[C@H](O)[C@H]1NC(C)=O)C(=O)O)[C@@H](C)O)[C@@H](C)O; listed as Homo sapiens) [GP002-6] |  |  |  | 150.7% | 111.0% |  |  |  |  | 109.7% | 115.8% |  |  |  | 
8 | Pal-N(Ac4-β-Glc)KTTKS-OH (Palmitoyl-N(Ac4‑β‑Glc)KTTKS-OH; listed as Homo sapiens) [GP003-7] |  |  |  | 105.0% | 148.2% |  |  |  |  | 139.8% | 118.5% |  |  |  | 
9 | Pal-N(β-Glc)KTTKS-OH (Palmitoyl-N(βGlc)KTTKS-OH; listed as Homo sapiens) [GP003-8] |  |  |  | 111.3% | 146.5% |  |  |  |  | 157.2% | 126.0% |  |  |  | 
